The values below come from patent US9686985B2, “Fungicide N-cycloalkyl-N-bicyclicmethylene-carboxamide derivatives” (BAYER INTELLECTUAL PROPERTY GMBH, priority 2012, dated 2017).

One assay relates to Uromyces appendiculatus. Kind of assay: Example G: in vivo preventive test on Uromyces appendiculatus (bean rust). To be noted: table G1; 500 ppm; bean plants; grading 11 days after contamination. The method in brief:
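Bean plants ("Saxa") at the 2-leaf stage, grown at 24° C., sprayed preventively with active ingredient, then inoculated 24 h later with U. appendiculatus spores (150 000 spores per mL). Incubated 24 h at 20° C./100% RH, then 10 days at 20° C./70-80% RH; % efficacy graded 11 days after contamination versus solvent-treated controls.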

The next assay relates to Botrytis cinerea. As to the kind of experiment: Example S: in vivo preventive test on Botrytis cinerea (grey mould). To be noted: table S; 500 ppm; gherkin plants; grading 4 to 5 days after contamination. Here is the method:
Example S: In Vivo Preventive Test on Botrytis cinerea (Grey Mould) […] Gherkin plants (“Vert petit de Paris” variety), sown in starter cups on a 50/50 peat soil pozzolana substrate and grown at 24° C., are treated at the Z11 cotyledon stage by spraying with the active ingredient prepared as described above. Plants, used as controls, are treated with the mixture of acetone/tween/DMSO/water not containing the active material. After 24 hours, the plants are contaminated by spraying the cotyledons with an aqueous suspension of cryopreserved Botrytis cinerea spores (50 000 spores per mL). The spores are suspended in a nutrient solution composed of 10 g/L of PDB, 50 g/L of D-Fructose, 2 g/L of NH4NO3 and 1 g/L of KH2PO4. The contaminated gherkin plants are incubated at 17° C. and at 90% relative humidity. Grading (% of efficacy) is carried out 4 to 5 days after the contamination, in comparison with the control plants.

As for `CC(C1CCCc2ccccc21)N(C(=O)c1c(C(F)F)nn(C)c1F)C1CC1` (stereo not shown) [I.23], the Efficacy in the assay with Uromyces appendiculatus was found to be 100%; in the assay with Botrytis cinerea it was 85%.

For `Cn1nc(C(F)F)c(C(=O)N(CC2CC(C)(C)Oc3ccccc32)C2CC2)c1F` (stereo not shown) [I.33], the figures for the Efficacy in the assay with Uromyces appendiculatus and in the assay on Botrytis cinerea were 100% and 80%, respectively.
